In US20220089629A1, “AMORPHOUS SIALYLATED OLIGOSACCHARIDES” (GLYCOM A/S, priority 2019, published 2022):
Structures can show the parent of a compound that is named as a salt. One block for each compound: values may come before it.

Assays:
[1] = pH measurement of aqueous solutions by pH-meter; type: physicochemical; details: for pH of aqueous stock solution: before pH adjustment
Method: When a pH value is referred to, it is measured by a pH-meter conventionally.
3′-SL Na-salt was made by bacterial fermentation and isolated in accordance with e.g. WO 2017/152918. An aqueous stock solution was made the concentration of which was 5.3 g/100 g, pH: 4.8.
Series A: a part of the above aqueous stock solution was adjusted to pH of 3.6 by addition of 1 M HCl-solution. The so-obtained solution was freeze-dried to give a white amorphous powder. The pH of its 5 w/w % solution was 3.9.
6′-SL Na-salt was made by bacterial fermentation and isolated in accordance with e.g. US 2018/0002363. An aqueous stock solution was made the concentration of which was 9.1 g/100 g, pH: 5.4.
Series A: a part of the above aqueous stock solution was adjusted to pH of 3.1 by addition of 1 M HCl-solution. The so-obtained solution was freeze-dried to give a white amorphous powder. The pH of its 5 w/w % solution was 3.5.

[2] = Forced heat stability test of freeze-dried amorphous 3′-SL samples, analysed by HPAEC-PAD; type: physicochemical
Method: Seven by one gram from each series, separately, was put into 4 ml glass vials and closed with screw lid containing teflon inliner (21 samples altogether). Three samples from each series were put into a 60° C. oven, and another three samples from each series were put into a 80° C. oven. One samples from each series was removed from the ovens after a time indicated below and kept in a freezer until analysis. The t=0 samples (one sample from each series) were kept in freezer during the entire time of the test.
The samples were analysed together after the longest incubation had finished by HPAEC-PAD on Carbopac PA-200 (3×250 mm) column using isocratic 75 mM NaOH+37.5 mM NaOAc eluent.

SMILES: CC(=O)N[C@H]1[C@H]([C@H](O)[C@H](O)CO)O[C@@](O[C@H]2[C@@H](O)[C@@H](CO)O[C@@H](O[C@H]3[C@H](O)[C@@H](O)C(O)O[C@@H]3CO)[C@@H]2O)(C(=O)O)C[C@@H]1O (stereo partly drawn) [3′-SL Na-salt, 3′-sialyllactose]
pH of aqueous stock solution ([1]; concentration 5.3 g/100 g): 4.8

SMILES: CC(=O)N[C@H]1[C@H]([C@H](O)[C@H](O)CO)O[C@@](O[C@H]2[C@@H](O)[C@@H](CO)O[C@@H](O[C@H]3[C@H](O)[C@@H](O)C(O)O[C@@H]3CO)[C@@H]2O)(C(=O)O)C[C@@H]1O (stereo partly drawn) [Example 1 Series A, 3′-sialyllactose]
content of 3′-O-sialyl-lactulose (ketose rearranged derivative of 3′-SL) in the sample ([2]; 60° C., 2 weeks, solid in closed vial, listed as sample A): 1.66 area %
content of 3′-O-sialyl-lactulose (ketose rearranged derivative of 3′-SL) in the sample ([2]; 60° C., 4 weeks, solid in closed vial, listed as sample A): 2.12 area %
content of 3′-O-sialyl-lactulose (ketose rearranged derivative of 3′-SL) in the sample ([2]; 60° C., 6 weeks, solid in closed vial, listed as sample A): 1.96 area %
content of 3′-O-sialyl-lactulose (ketose rearranged derivative of 3′-SL) in the sample ([2]; 80° C., 1 weeks, solid in closed vial, listed as sample A): 1.91 area %
content of 3′-O-sialyl-lactulose (ketose rearranged derivative of 3′-SL) in the sample ([2]; 80° C., 2 weeks, solid in closed vial, listed as sample A): 1.97 area %
content of 3′-O-sialyl-lactulose (ketose rearranged derivative of 3′-SL) in the sample ([2]; 80° C., 4 weeks, solid in closed vial, listed as sample A): 2.24 area %
content of 3′-O-sialyl-lactulose (ketose rearranged derivative of 3′-SL) in the sample ([2]; t = 0, kept in freezer, listed as sample A): 1.75 area %

SMILES: CC(=O)N[C@H]1[C@H]([C@H](O)[C@H](O)CO)O[C@@](O[C@H]2[C@@H](O)[C@@H](CO)O[C@@H](O[C@H]3[C@H](O)[C@@H](O)C(O)O[C@@H]3CO)[C@@H]2O)(C(=O)O)C[C@@H]1O (stereo partly drawn) [Example 1 Series B, 3′-sialyllactose]
content of 3′-O-sialyl-lactulose (ketose rearranged derivative of 3′-SL) in the sample ([2]; 60° C., 2 weeks, solid in closed vial, listed as sample B): 2.16 area %
content of 3′-O-sialyl-lactulose (ketose rearranged derivative of 3′-SL) in the sample ([2]; 60° C., 4 weeks, solid in closed vial, listed as sample B): 2.16 area %
content of 3′-O-sialyl-lactulose (ketose rearranged derivative of 3′-SL) in the sample ([2]; 60° C., 6 weeks, solid in closed vial, listed as sample B): 2.31 area %
content of 3′-O-sialyl-lactulose (ketose rearranged derivative of 3′-SL) in the sample ([2]; 80° C., 1 weeks, solid in closed vial, listed as sample B): 2.34 area %
content of 3′-O-sialyl-lactulose (ketose rearranged derivative of 3′-SL) in the sample ([2]; 80° C., 2 weeks, solid in closed vial, listed as sample B): 2.39 area %
content of 3′-O-sialyl-lactulose (ketose rearranged derivative of 3′-SL) in the sample ([2]; 80° C., 4 weeks, solid in closed vial, listed as sample B): 2.88 area %
content of 3′-O-sialyl-lactulose (ketose rearranged derivative of 3′-SL) in the sample ([2]; t = 0, kept in freezer, listed as sample B): 1.77 area %

SMILES: CC(=O)N[C@H]1[C@H]([C@H](O)[C@H](O)CO)O[C@@](O[C@H]2[C@@H](O)[C@@H](CO)O[C@@H](O[C@H]3[C@H](O)[C@@H](O)C(O)O[C@@H]3CO)[C@@H]2O)(C(=O)O)C[C@@H]1O (stereo partly drawn) [Example 1 Series C, 3′-sialyllactose]
content of 3′-O-sialyl-lactulose (ketose rearranged derivative of 3′-SL) in the sample ([2]; 60° C., 2 weeks, solid in closed vial, listed as sample C): 2.67 area %
content of 3′-O-sialyl-lactulose (ketose rearranged derivative of 3′-SL) in the sample ([2]; 60° C., 4 weeks, solid in closed vial, listed as sample C): 2.96 area %
content of 3′-O-sialyl-lactulose (ketose rearranged derivative of 3′-SL) in the sample ([2]; 60° C., 6 weeks, solid in closed vial, listed as sample C): 3.03 area %
content of 3′-O-sialyl-lactulose (ketose rearranged derivative of 3′-SL) in the sample ([2]; 80° C., 1 weeks, solid in closed vial, listed as sample C): 2.95 area %
content of 3′-O-sialyl-lactulose (ketose rearranged derivative of 3′-SL) in the sample ([2]; 80° C., 2 weeks, solid in closed vial, listed as sample C): 3.38 area %
content of 3′-O-sialyl-lactulose (ketose rearranged derivative of 3′-SL) in the sample ([2]; 80° C., 4 weeks, solid in closed vial, listed as sample C): 4.61 area %
content of 3′-O-sialyl-lactulose (ketose rearranged derivative of 3′-SL) in the sample ([2]; t = 0, kept in freezer, listed as sample C): 1.81 area %

More lines, now with the values ahead:

pH of aqueous stock solution ([1]; concentration 9.1 g/100 g): 5.4
SMILES: CC(=O)N[C@H]1[C@H]([C@H](O)[C@H](O)CO)O[C@@](OC[C@H]2O[C@@H](O[C@H]3[C@H](O)[C@@H](O)[C@H](O)O[C@@H]3CO)[C@H](O)[C@@H](O)[C@H]2O)(C(=O)O)C[C@@H]1O [6′-SL Na-salt, 6′-sialyllactose]

pH of the 5 w/w % solution of the freeze-dried amorphous powder ([1]; 5 w/w % aqueous solution after freeze-drying): 6.2
SMILES: CC(=O)N[C@H]1[C@H]([C@H](O)[C@H](O)CO)O[C@@](OC[C@H]2O[C@@H](O[C@H]3[C@H](O)[C@@H](O)[C@H](O)O[C@@H]3CO)[C@H](O)[C@@H](O)[C@H]2O)(C(=O)O)C[C@@H]1O [Example 2 Series D, 6′-sialyllactose]
